Laboratory results reported in ChEMBL document CHEMBL4049426, “Identification of the Clinical Candidate (R)-(1-(4-Fluorophenyl)-6-((1-methyl-1H-pyrazol-4-yl)sulfonyl)-4,4a,5,6,7,8-hexahydro-1H-pyrazolo[3,4-g]isoquinolin-4a-yl)(4-(trifluoromethyl)pyridin-2-yl)methanone (CORT125134): A Selective Glucocorticoid Receptor (GR) Antagonist” (J Med Chem, 2017).

Columns and labels:
[1] = target: Cytochrome P450 2C19 (Homo sapiens, UniProt P33261); assay: Inhibition of CYP2C19 (unknown origin); type: ADME
[2] = target: T1, androgen receptor (Homo sapiens, UniProt P10275); assay: Inhibition of radioligand binding to androgen receptor (unknown origin) at 1 uM relative to control
T1 sequence (P10275 whole entry): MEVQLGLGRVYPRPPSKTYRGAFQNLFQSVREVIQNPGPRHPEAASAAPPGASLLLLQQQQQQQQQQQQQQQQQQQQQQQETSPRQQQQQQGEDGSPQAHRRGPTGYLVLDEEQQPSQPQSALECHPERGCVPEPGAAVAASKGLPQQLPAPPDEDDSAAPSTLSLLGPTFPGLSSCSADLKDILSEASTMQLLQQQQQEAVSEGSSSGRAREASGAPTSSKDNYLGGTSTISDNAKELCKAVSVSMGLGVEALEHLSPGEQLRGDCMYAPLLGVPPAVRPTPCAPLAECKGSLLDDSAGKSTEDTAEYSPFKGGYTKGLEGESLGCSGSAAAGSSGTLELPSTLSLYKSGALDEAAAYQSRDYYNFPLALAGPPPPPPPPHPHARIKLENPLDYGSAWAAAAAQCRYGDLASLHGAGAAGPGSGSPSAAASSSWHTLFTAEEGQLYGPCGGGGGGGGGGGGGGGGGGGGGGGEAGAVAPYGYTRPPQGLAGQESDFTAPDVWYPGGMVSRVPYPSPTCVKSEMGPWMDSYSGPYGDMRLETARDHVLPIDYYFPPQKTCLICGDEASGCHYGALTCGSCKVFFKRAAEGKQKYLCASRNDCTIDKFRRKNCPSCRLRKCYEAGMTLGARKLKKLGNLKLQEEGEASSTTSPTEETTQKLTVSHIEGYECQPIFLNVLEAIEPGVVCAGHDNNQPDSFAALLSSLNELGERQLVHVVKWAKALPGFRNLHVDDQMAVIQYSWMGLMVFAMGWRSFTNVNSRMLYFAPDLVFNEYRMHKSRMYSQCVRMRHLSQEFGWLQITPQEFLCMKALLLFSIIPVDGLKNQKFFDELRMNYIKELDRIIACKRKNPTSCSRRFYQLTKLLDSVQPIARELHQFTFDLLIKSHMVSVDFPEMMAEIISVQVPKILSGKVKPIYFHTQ

[3] = Protein binding in rat plasma; type: ADME, cell-free; details: read-out: PPB (converted)
[4] = target: T2, Glucocorticoid receptor (Canis lupus familiaris) (UniProt A0A8C0QLS2); assay: (§1) Antagonist activity at dog glucocorticoid receptor in primary hepatocytes assessed as dexamethasone-induced tyrosine amino transferase activity preincubated for 30 mins followed by dexamethasone addition measured after 20 hrs; type: cell-based
T2 sequence (whole entry): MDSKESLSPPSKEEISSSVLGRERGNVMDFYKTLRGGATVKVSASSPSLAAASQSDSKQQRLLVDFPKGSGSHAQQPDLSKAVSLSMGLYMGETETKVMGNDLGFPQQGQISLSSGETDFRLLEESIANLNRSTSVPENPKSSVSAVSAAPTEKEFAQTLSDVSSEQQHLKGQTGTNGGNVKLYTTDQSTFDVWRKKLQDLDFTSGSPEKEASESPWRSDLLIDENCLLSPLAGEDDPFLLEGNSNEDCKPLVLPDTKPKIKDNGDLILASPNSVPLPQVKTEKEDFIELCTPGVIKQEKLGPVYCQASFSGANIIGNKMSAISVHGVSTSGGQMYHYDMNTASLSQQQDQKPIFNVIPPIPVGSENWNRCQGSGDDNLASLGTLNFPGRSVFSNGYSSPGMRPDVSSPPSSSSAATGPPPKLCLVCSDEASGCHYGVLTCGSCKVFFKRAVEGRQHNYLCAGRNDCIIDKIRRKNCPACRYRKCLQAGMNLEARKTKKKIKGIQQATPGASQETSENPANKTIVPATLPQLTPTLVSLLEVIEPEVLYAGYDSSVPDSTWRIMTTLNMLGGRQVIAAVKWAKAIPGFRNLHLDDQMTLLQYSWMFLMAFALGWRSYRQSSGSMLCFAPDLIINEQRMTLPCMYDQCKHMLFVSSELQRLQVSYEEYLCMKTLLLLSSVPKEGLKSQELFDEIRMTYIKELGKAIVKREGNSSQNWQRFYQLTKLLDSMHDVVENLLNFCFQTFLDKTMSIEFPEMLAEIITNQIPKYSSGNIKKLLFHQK

[5] = target: T3, Glucocorticoid receptor (Canis lupus familiaris, UniProt A0A8C0QLS2); assay: as §1; type: cell-based
T3 sequence (A0A8C0QLS2 whole entry): T2 sequence (whole entry)

[6] = target: T4, Glucocorticoid receptor (Homo sapiens, UniProt P04150); assay: (§2) Antagonist activity at glucocorticoid receptor in human primary hepatocytes assessed as inhibition of dexamethasone-induced tyrosine amino transferase activity preincubated for 30 mins followed by dexamethasone addition measured after 20 hrs; type: cell-based
T4 sequence (P04150 whole entry): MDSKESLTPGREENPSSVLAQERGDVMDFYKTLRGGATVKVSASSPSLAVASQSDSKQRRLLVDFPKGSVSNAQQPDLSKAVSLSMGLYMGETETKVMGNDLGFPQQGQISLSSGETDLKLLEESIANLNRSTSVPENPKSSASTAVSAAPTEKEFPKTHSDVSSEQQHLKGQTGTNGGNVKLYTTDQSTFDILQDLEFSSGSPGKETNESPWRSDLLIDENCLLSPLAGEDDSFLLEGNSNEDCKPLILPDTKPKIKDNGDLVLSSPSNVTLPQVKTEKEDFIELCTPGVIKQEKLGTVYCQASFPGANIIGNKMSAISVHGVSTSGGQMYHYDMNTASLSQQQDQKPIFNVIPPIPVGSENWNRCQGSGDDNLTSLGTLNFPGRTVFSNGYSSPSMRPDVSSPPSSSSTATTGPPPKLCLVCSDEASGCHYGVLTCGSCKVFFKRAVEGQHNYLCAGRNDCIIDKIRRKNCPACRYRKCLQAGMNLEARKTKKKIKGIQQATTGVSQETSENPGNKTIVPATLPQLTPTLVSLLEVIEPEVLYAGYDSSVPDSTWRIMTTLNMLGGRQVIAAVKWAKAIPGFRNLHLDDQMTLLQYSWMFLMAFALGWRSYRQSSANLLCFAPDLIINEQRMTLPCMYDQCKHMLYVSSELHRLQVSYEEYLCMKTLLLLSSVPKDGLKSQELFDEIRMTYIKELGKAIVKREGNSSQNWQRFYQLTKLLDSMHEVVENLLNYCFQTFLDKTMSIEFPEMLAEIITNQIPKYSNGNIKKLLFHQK

[7] = target: T5, Glucocorticoid receptor (Homo sapiens) (UniProt P04150); assay: as §2; type: cell-based
T5 sequence (whole entry): T4 sequence (P04150 whole entry)

[8] = organism: Macaca mulatta; assay: (§3) Antagonist activity at monkey glucocorticoid receptor in primary hepatocytes assessed as dexamethasone-induced tyrosine amino transferase activity preincubated for 30 mins followed by dexamethasone addition measured after 20 hrs; type: cell-based
[9] = as §3; type: cell-based, Macaca mulatta

Chain of Cytochrome P450 2C19 (P33261 whole entry): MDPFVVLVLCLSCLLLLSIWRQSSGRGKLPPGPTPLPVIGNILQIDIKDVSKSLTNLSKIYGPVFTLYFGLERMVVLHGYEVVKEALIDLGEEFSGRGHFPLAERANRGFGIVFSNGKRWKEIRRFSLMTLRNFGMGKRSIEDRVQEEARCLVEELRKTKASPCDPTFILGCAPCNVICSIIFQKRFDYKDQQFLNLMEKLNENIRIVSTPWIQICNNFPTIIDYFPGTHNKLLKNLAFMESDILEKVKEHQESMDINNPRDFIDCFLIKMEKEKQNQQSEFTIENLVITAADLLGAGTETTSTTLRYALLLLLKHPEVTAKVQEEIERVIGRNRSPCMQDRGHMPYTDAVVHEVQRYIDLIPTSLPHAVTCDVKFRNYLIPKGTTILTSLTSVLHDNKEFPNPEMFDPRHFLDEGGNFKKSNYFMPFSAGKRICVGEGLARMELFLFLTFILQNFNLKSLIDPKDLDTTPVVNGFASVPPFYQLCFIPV

## Cn1cc(S(=O)(=O)N2CCC3=Cc4c(cnn4-c4ccc(F)cc4)C[C@]3(C(=O)c3cc(C(F)(F)F)ccn3)C2)cn1 [RELACORILANT]
[1]
  IC50: 8000 nM
[2]
  inhibition at 1 µM: < 10%
[3]
  fraction unbound: 0.003
[4]
  Imax: 31%
[5]
  Ki: > 10000 nM
[6]
  Ki: 81.2 nM
[7]
  Imax: 100%
[8]
  Imax: 99%
[9]
  Ki: 210 nM
